Test results taken from patent US20120077813A1, “Imidazole Substituted Pyrimidines Useful in the Treatment of Glycogen Synthase Kinase-3 Related Disorders such as Alzheimer's Disease” (ASTRAZENECA AB, priority 2009, published 2012).
Where a name gives a salt, the structure may show the parent alone.

How the values were obtained:
[1] = CaCo-2 permeability assay Alt 1 (pH gradient 6.5/7.4); format: in vitro ADME; settings: human, Alt 1: apical to basolateral, pH 6.5 apically, pH 7.4 basolaterally, typically 10 μM, mean value
Protocol: (§1) CaCo-2 Cell Permeability Assay
(§2) CaCo-2 cells were seeded onto filter membrane at a density of 340500 cells/cm2 for 24 well plates (0.33 cm2/well). The cells were grown in culture medium consisting of Dulbecco's modified Eagle's medium with glucose and L-glutamine supplemented with 10% fetal bovine serum, 100 U/ml penicillin-G, and 100 μg/ml streptomycin and 1% (v/v) 100X non-essential amino acids. The culture medium was replaced every second day and the cells were maintained at 37° C., 95% relative humidity, and 5% CO2. Permeability studies were conducted with the monolayers cultured for 21-28 days with the cell passage numbers between 25 and 50.
Alt 1. the CaCo-2 Permeability Assay Used in Examples 3, 5, 6 and Reference Example.
The CaCo-2 permeabilty assay were performed in the apical to basolateral directions under gradient pH-gradient conditions (pH 6.5 apically, pH 7.4 basolaterally). HBSS containing 25 mM HEPES (pH 7.4) and 25 mM MES (pH 6.5) was used as transport medium. Fully differentiated cell monolayers were washed with transport medium. The drug solutions, typically 10 μM, were prepared in transport medium, pH 6.5 (1% DMSO). The permeability experiment was started by adding 0.2 ml drug solutions on the apical side. The basolateral side contained 0.8 ml of transport medium, pH 7.4. Three inserts with cells and one without were assayed for each drug. Cells were kept in an incubator at 37° C. and shaking. 200 μl samples were taken at 45 and 90 min from the basolateral side. The same volume of transport buffer was added to the basolateral compartments after the first sampling. Compound recovery was assessed by calculating the sum of the cumulatively transported amount and the amount left in the donor side against the initial amount of drug. The samples were analysed online using liquid chromatography tandem mass spectrometry (LC/MS/MS). […] The samples of 25 μl were analysed by liquid scintillation.
(§3) The apparent permeability coefficient is calculated as follows: […]

recombinant human GSK3β = molecular target: T1, recombinant human GSK3β (Homo sapiens, UniProt P49841); test: ATP competition in scintillation proximity GSK3β assay; format: biochemical; settings: for Ki: mean value, Ki calculated with Km of ATP 20 μM; for Selectivity GSK3β vs CDK2: ratio of CDK2 Ki to GSK3β Ki
T1 construct: purchased Dundee University, UK
T1 sequence (P49841 whole entry): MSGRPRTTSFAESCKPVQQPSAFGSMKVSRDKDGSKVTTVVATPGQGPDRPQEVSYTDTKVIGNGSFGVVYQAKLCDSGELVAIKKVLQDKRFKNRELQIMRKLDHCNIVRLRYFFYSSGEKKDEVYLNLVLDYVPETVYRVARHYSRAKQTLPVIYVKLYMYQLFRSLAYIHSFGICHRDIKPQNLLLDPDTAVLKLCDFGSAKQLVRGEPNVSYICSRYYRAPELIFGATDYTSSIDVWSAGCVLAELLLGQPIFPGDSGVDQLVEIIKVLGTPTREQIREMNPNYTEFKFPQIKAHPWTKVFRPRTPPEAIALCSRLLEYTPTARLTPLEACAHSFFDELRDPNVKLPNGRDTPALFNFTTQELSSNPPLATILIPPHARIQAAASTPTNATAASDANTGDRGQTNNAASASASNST
Protocol: Determination of ATP Competition in Scintillation Proximity GSK3β Assay.
The inhibition experiments were carried out in duplicate with 10 concentrations of the inhibitor in 384 well clear-bottom microtitre plates. A biotinylated peptide substrate (Biotin-Ala-Ala-Glu-Glu-Leu-Asp-Ser-Arg-Ala-Gly-Ser(PO3H2)-Pro-Gln-Leu (AstraZeneca, Lund)), was added at a final concentration of 1 mmol/L in an assay buffer (pH 7.0) containing 0.1 mU recombinant human GSK3β (Dundee University, UK), (1 nmol/L active enzyme), 10 mmol/L morpholinepropanesulfonic acid (MOPS), 0.3 mmol/L EDTA, 0.01% (v/v) β-mercaptoethanol, 0.003% (w/v) polyethylene 23 lauryl ether (Brij 35), 0.4% glycerol and 0.02 mg bovine serum albumine (BSA) and preincubated for 10 minutes. The reaction was initiated by the addition of 0.06 mCi [γ-33P]ATP (Amersham, UK) and unlabelled ATP in 30 mmol/L Mg(Ac)2 to a final concentration of […] ATP. The final assay volume was […]. Blank controls without peptide substrate were used. After incubation for 15 min at room temperature, the reaction was terminated by the addition of stop solution containing 1.3 mmol/L EDTA, 13 mmol/L ATP, 0.02% Triton™X-100 and 0.15 mg streptavidin coated SPA beads. After a 5 minutes centrifugation at 2000 rpm, the radioactivity was measured in a liquid scintillation counter (1450 MicroBeta Trilux, Perkin Elmer, Finland). The Km value of ATP for GSK3β, used to calculate the inhibition constants (Ki) of the various compounds, was 20 μM.

Cdk2/cyclin E = Cdk2/cyclin E (Homo sapiens, UniProt P24941); test: ATP competition in scintillation proximity Cdk2 assay; format: biochemical; settings: mean value; Ki calculated with Km of ATP 0.5 μM
Protocol: Determination of ATP Competition in Scintillation Proximity Cdk2 Assay.
The competiton experiments were carried out in duplicate with 10 concentrations of the inhibitor in 96 well clear-bottom microtiter plates. Cdk2/cyclin E enzyme was added at a concentration corresponding to a 80 times dilution of the partially purified bacluloviral infected insect cell lysate in a buffer containing 50 mmol/L HEPES, 10 mmol/L MnCl2, 1 mmol/L dithiothreitol (DTT), 100 μmol/L NaF, 100 μmol/L sodium vanadate, 10 mmol/L sodium glycerophosphate, 5 μg/mL aprotinin, 2.5 μg/mL leupeptin and 100 μmol/L PMSF, pH 7.5. Blank controls without enzyme were used. The reaction was initiated by the addition of 1.25 μg GST-Rb, 0.15 μCi [γ-33P]ATP and unlabelled ATP at a final concentration of 0.1 μmol/L. The final assay volume was 50 μL. After incubation for 60 min at room temperature, each reaction was terminated by the addition of 150 μL stop solution containing 45 μL protein A coated SPA beads in 50 mmol/L HEPES, 3.28 mg antiglutathione-S-transferase, and 5.5 mmol/L EDTA and 35 μmol/L ATP. The plate was centrifuged at 2000 rpm for 5 min and the radioactivity was determined in a liquid scintillation counter (1450 MicroBeta Trilux, Perkin Elmer, Finland). The Km value of ATP for Cdk2 used to calculate the inhibition constants (Ki) of the various compounds, was 0.5 μM

[2] = CaCo-2 A to B permeability assay Alt 2 (pH 7.4); format: in vitro ADME; settings: human, Alt 2: apical to basolateral, pH 7.4, 10 μM, mean value
Protocol: as §1, §2
Alt 2. the CaCo-2 A to B Permeability Assay Used in Examples 2-4, 7-8.
The CaCo-2 A to B assay was performed in the apical to basolateral direction (each in duplicates) at pH 7.4. HBSS containing 25 mM HEPES (pH 7.4) was used as transport medium. The drug solutions, typically 10 μM, were prepared in transport medium (1% DMSO). Studies of six compounds can be performed in one 24 well plate that generates one 96 deepwell analysis plate (maximum capacity 6 plates=36 compounds and 6 deep well plates). The CaCo-2 cell monolayers were washed once with HBSS for 10 minutes prior to start. Transport buffer, 800 μL, (HBSS, pH 7.4) is first dispensed to the basal side of the monolayer. The assay is then initiated by addition of 225 μL of each compound (10 μM) to the apical side. Samples are withdrawn directly (Donor 0) and at 60 min (Donor end and Receiver 60) post addition of test compound. 25 μL and 150 μL are withdrawn from the donor compartment and the receiver compartment, respectively. During washing-step and incubation with compounds the transwell plates are placed in a shaking incubator at 480 rpm and 37° C. The integrity of the epithelial cell monolayer is monitored by measuring the amount of radiolabelled [^14C]mannitol (low passive paracellular diffusion) in the donor compartment at time 0 min to 60 min. Luma Plate 96-well is used for analysis of [14C]mannitol. Compound recovery was assessed by calculating the sum of the cumulatively transported amount and the amount left in the donor side against the initial amount of drug. The samples were analysed online using liquid chromatography tandem mass spectrometry (LC/MS/MS).
as §3
where ΔQ/Δt is the total amount of substance transported into the receiver chamber per unit time, A is the surface area (cm^2), and C0 the starting donor concentration. The apparent permeability Papp is expressed in ×10-6 cm/sec.

SMILES | melting point [°C] | Papp A→B at 90 min, 10 µM [1] [×10⁻⁶ cm/s] | Ki (recombinant human GSK3β) [nM] | Selectivity GSK3β vs CDK2 (recombinant human GSK3β) | Ki (Cdk2/cyclin E) [nM] | Papp A→B at 60 min, 10 µM [2] [×10⁻⁶ cm/s] | Selectivity GSK3β vs CDK2 (recombinant human GSK3β; hydrochloride)
Cc1ncc(-c2nc(Nc3cc(F)c(CN4CCOCC4)cc3F)ncc2F)n1C1CCOCC1 (as salt: succinate) [Ex 5, N-(2,5-Difluoro-4-(morpholinomethyl)phenyl)-5-fluoro-4-(2-methyl-1-(tetrahydro-2H-pyran-4-yl)-1H-imidazol-5-yl)pyrimidin-2-amine] | 177 |  |  |  |  |  | 
Cc1ncc(-c2nc(Nc3ccc(CN4CCOCC4)cc3F)ncc2F)n1C1CCOCC1 [Ex 1, 5-Fluoro-N-(2-fluoro-4-(morpholinomethyl)phenyl)-4-(2-methyl-1-(tetrahydro-2H-pyran-4-yl)-1H-imidazol-5-yl)pyrimidin-2-amine] |  | 36 | 15 | 20 | 308 |  | 
Cc1ncc(-c2nc(Nc3ccc(CN4CCOC[C@H]4C)cc3F)ncc2F)n1C1CCOCC1 [Ex 2, 5-Fluoro-N-(2-fluoro-4-(((R)-3-methylmorpholino)methyl)phenyl)-4-(2-methyl-1-(tetrahydro-2H-pyran-4-yl)-1H-imidazol-5-yl)pyrimidin-2-amine hydrochloride] |  |  | 5 | 58 | 290 | 39 | 
Cc1ncc(-c2nc(Nc3ccc(CN4CCOC[C@@H]4C)cc3F)ncc2F)n1C1CCOCC1 [Ex 3, 5-Fluoro-N-(2-fluoro-4-(((S)-3-methylmorpholino)methyl)phenyl)-4-(2-methyl-1-(tetrahydro-2H-pyran-4-yl)-1H-imidazol-5-yl)pyrimidin-2-amine hydrochloride] |  |  | 30 | 31 | 940 | 56 | 
Cc1ncc(-c2nc(Nc3ccc(CN4[C@@H](C)COC[C@@H]4C)cc3F)ncc2F)n1C1CCOCC1 [Ex 4, N-(4-(((3S,5S)-3,5-Dimethylmorpholino)methyl)-2-fluorophenyl)-5-fluoro-4-(2-methyl-1-(tetrahydro-2H-pyran-4-yl)-1H-imidazol-5-yl)pyrimidin-2-amine hydrochloride] |  |  | 11 | 29 | 318 | 44 | 
Cc1ncc(-c2nc(Nc3cc(F)c(CN4CCOCC4)cc3F)ncc2F)n1C1CCOCC1 [Ex 5, N-(2,5-Difluoro-4-(morpholinomethyl)phenyl)-5-fluoro-4-(2-methyl-1-(tetrahydro-2H-pyran-4-yl)-1H-imidazol-5-yl)pyrimidin-2-amine] |  | 45 | 4.9 | 26 | 127 |  | 
Cc1ncc(-c2nc(Nc3cc(F)c(CN4CCOCC4)cc3F)ncc2F)n1C1CCOCC1 [Ex 6, N-(2,5-Difluoro-4-(morpholinomethyl)phenyl)-5-fluoro-4-(2-methyl-1-(tetrahydro-2H-pyran-4-yl)-1H-imidazol-5-yl)pyrimidin-2-amine hydrochloride] |  |  | 4.9 |  | 133 |  | 27
Cc1ncc(-c2nc(Nc3cc(F)c(CN4CCOC[C@@H]4C)cc3F)ncc2F)n1C1CCOCC1 [Ex 7, N-(2,5-Difluoro-4-(((S)-3-methylmorpholino)methyl)phenyl)-5-fluoro-4-(2-methyl-1-(tetrahydro-2H-pyran-4-yl)-1H-imidazol-5-yl)pyrimidin-2-amine] |  |  | 11 | 16 | 175 | 44 | 
Cc1ncc(-c2nc(Nc3cc(F)c(CN4[C@@H](C)COC[C@@H]4C)cc3F)ncc2F)n1C1CCOCC1 [Ex 8, N-(4-(((3S,5S)-3,5-Dimethylmorpholino)methyl)-2,5-difluorophenyl)-5-fluoro-4-(2-methyl-1-(tetrahydro-2H-pyran-4-yl)-1H-imidazol-5-yl)pyrimidin-2-amine] |  |  | 7.7 | 29 | 222 | 40 | 
Cc1ncc(-c2nc(Nc3ccc(CN4CCOCC4)cc3)ncc2F)n1C1CCOCC1 [Reference example, 5-fluoro-4-(2-methyl-1-(tetrahydro-2H-pyran-4-yl)-1H-imidazol-5-yl)-N-(4-(morpholinomethyl)phenyl)pyrimidin-2-amine, reference compound] |  | 26 | 8.1 | 14 | 110 |  | 
